Measured values: patent US12103952B2, “Methods for expressing proteins in axons” (Cornell University, priority 2010, dated 2024)

Tested on: CREB
Assay: CREB levels in severed axons by immunofluorescence
Format: cell-based, rat
Conditions: for NGF-dependent restoration of CREB immunofluorescence: 1 μM cycloheximide or 40 μM anisomycin, concurrent with NGF replacement
Method: FIGS. 7A-B are results showing the axonal translation and retrograde transport of endogenous CREB. (A) CREB levels in severed axons of E15 DRGs were assayed by immunofluorescence with a CREB-specific antibody. CREB was depleted on removal of NGF, with near complete loss of fluorescence signals by 3 hours. […] The error bars represent s.e.m. (n=40). (B) CREB is depleted from axon terminals in a microtubule-dependent manner. CREB levels in severed axons were monitored, as in A, after removal and restoration of NGF, in the presence of LLnL or colchicine. Colchicine, but not LLnL, blocked the reduction in CREB levels following removal of NGF. The error bars represent s.e.m. (n=40).
E15 rat or E13 mouse embryonic dorsal root ganglion (DRG) explants were plated on glass-bottom culture dishes (MatTek) or glass coverslips pre-coated with 33 μg/ml poly-D-lysine and 1 μg/ml laminin. CREB^α/Δ−/+ animals used to generate CREB^α/Δ−/− embryos were from Jackson Labs. E15 dissociated DRG neurons were prepared as described by Wu et al., Nature 436, 1020-1024 (2005). DRGs were cultured in B27/Neurobasal medium (Invitrogen) supplemented with 100 ng/ml nerve growth factor (NGF) and […] 5′-fluorodeoxyuridine (5-FdU) for 3 days. siRNA-mediated knockdown in DRG neurons has been described previously by Higuchi et al., Biochemical & Biophysical Research Communications 301, 804-809 (2003) and was performed using siRNAs listed in Table S3. For measurements of CREB levels in isolated axons, axons were severed from cell bodies by removing the explant with a flame-sharpened Pasteur pipette (Wu et al., Nature 436, 1020-1024 (2005)). Modified Boyden chambers were based on the procedure of Twiss (Zheng et al., Journal of Neuroscience 21, 9291-9303 (2001)) and modified to obtain distal axons as described by Wu et al., Nature 436, 1020-1024 (2005). mRNA from harvested axons (Wu et al., Nature 436, 1020-1024 (2005)) was used to prepare a cDNA library using a modified, unbiased single cell protocol as described below. See also Tietjen et al., Neuron 38, 161-175 (2003). Compartmented (Campenot) cultures were prepared as described below. See also Campenot, Proc Natl Acad Sci USA 74, 4516-4519 (1977)).
Images and measurements of signals in axons were taken from the terminal 50 μm of the axon, except where indicated. Analyzed axons were a minimum of 2000 μm for all experiments. DRGs were fixed with 4% PFA in CBS overnight at 4° C., permeabilized with 0.5% Triton X-100/TBS, and blocked in 4% BSA/TBS for 1 hour. DRGs were labeled with antibodies (Table S4) in 2% BSA/0.1% Triton X-100/TBS overnight at 4° C. For image acquisition details, see below.
The axonal localization of CREB was also examined by immunofluorescence. Axons were severed from cultured DRG explants to rule out potential contributions from anterograde transport of cell body-derived CREB. […] Although the majority of CREB protein localized to the nucleus, with substantially lower levels in axons (FIG. 4D), the immunofluorescence signal in axons was specific. Similar immunofluorescence staining was seen using a different CREB-specific antibody that recognized a non-overlapping epitope.
The importin proteins, which bind nuclear-localization sequences (NLS) (Goldfarb et al., Trends in Cell Biology 14, 505-514 (2004)), are present in axons and mediate the retrograde trafficking of axonally-injected fluorescently-labeled NLS peptides (Hanz et al., Neuron 40, 1095-1104 (2003)). Since CREB contains a NLS that mediates its nuclear localization (Waeber & Habener, Mol Endocrinol 5, 1418-1430 (1991)), axonal CREB may be retrogradely transported to the cell body. To determine if endogenously-expressed CREB is retrogradely trafficked, we examined the time course of CREB reduction in axons upon replacement of media with NGF-free media. […]

Compound	time for axonal CREB levels to decrease to baseline (after NGF removal)	time for CREB levels to return to original levels (following restoration of NGF)	recovery in CREB levels (within 30 min of NGF restoration)	CREB immunoreactivity in severed axons (100 ng/ml NGF + 1 μM cycloheximide, 3 hours)	NGF-dependent restoration of CREB immunofluorescence
NGF: nerve growth factor	≤ 3 h	2 h	~40%		
C[C@@H]1C[C@@H]([C@H](O)CC2CC(=O)NC(=O)C2)C(=O)[C@@H](C)C1 [cycloheximide]				loss of CREB immunoreactivity	prevented the restoration of CREB immunofluorescence
COc1ccc(C[C@H]2NC[C@H](O)[C@H]2OC(C)=O)cc1 [anisomycin]					prevented the restoration of CREB immunofluorescence
